Experimental data: patent publication US6596703B1, “Promotion of wound healing utilizing steroids having reduced deteriorous systemic side effects typical of glucocorticoids, mineralocorticoids and sex steroids” (Jagotec AG, priority 1997, dated 2003)
Entries after “also recorded” stand apart in the source; their conditions may differ. Where two headings read alike, the source gives them in different places.

Legend:
[1] = system: murine chronic granulomatous air pouch; test: Inflammatory-induced angiogenesis in the murine chronic granulomatous air pouch, topical application in 2.5% hyaluronan; assay type: in vivo, mice; settings: for effect on angiogenesis: topical application (1 mg/kg) in 2.5% hyaluronan; for Vascular Index: 0.1 ml 2.5% hyaluronan alone topically daily day 0 to day 6
Description: (§1) Chronic granulomatous air pouches were raised in mice by known methods (the reader is referred to PCT/CA94/00207 at page 16 for an experimental method in this regard) utilizing 0.5 ml Freund's Complete adjuvant with 0.1% croton oil injected into 1 day old air pouches. Animals were dosed with saline/0.01% DMSO either subcutaneously (s.c.) into the nape of the neck, or with saline applied topically in 0.1 ml 2.5% hyaluronan. Vascular casts incorporating carmine in gelatin were formed at termination, the tissues weighed dry (mg), papain digested, and the carmine content (μg) determined by spectrophotometric assay. Vascularity was calculated as the Vascularity Index (μg/mg). Results are expressed as means±s.e.m.
(§2) Investigation of the action of topical tetrahydrocortisol, tetrahydrocortisone, tetrahydrocortexolone and the like on inflammatory-induced angiogenesis in the murine chronic granulomatous air pouch was pursued. Groups of mice (n=8-13) were depilated and the inflammation induced 4 days later. Tetrahydrocortisol (TH-F) and tetrahydrocortisone (TH-E) were applied topically (1 mg/kg) in 2.5% hyaluronan (0.1 ml) daily from the day of induction (day 0) to termination (day 6). Controls were dosed with 0.1 ml 2.5% hyaluronan alone.
as §2, with “tetrahydrocortisone and” for “tetrahydrocortisone,”, “was” for “and tetrahydrocortisone (TH-E) were”, “with” for “(1 mg/kg) in”, “ml of composition 0.1-1.0 mg of tetrahydrocortisol/kg) by weight” for “ml)”

[2] = system: murine chronic granulomatous air pouch; test: Inflammation-induced angiogenesis in the murine chronic granulomatous air pouch, s.c. dosing from induction (day 0) to day 6; assay type: in vivo, mice; settings: for Vascular Index: mean ± s.e.m.; for angiostatic action: administered alone s.c. 1 mg/kg, no heparin, prophylactic dosing (Tables 1, 2)
Description: as §1
Investigation of the action of tetrahydrocortisol, tetrahydrocortisone and tetrahydrocortexolone and the like on inflammation-induced angiogenesis in the murine chronic granulomatous air pouch was pursued. Groups of mice (n=8-13) were dosed with tetrahydrocortisol, tetrahydrocortisone or tetrahydrocortexolone or the like (0.1-3.0 mg/kg in 0.1 ml saline/0.01% DMSO, s.c) daily from induction (day 0) to termination on day 6. Controls were dosed with 0.1 ml saline/0.01% DMSO subcutaneously.
Investigation of the action of angiostatic and anti-inflammatory steroids on inflammation-induced angiogenesis in the murine chronic granulomatous air pouch was pursued. Groups of mice (n=8-13) were treated with the steroids at 1.0 mg/kg (0.1 ml saline/0.01% DMSO, s.c), except of dexamethasone at (0.2 mg/kg), daily from the day of induction (day 0) to termination on day 6. Controls were given 0.1 ml saline/0.01% DMSO s.c. (Key: Tetrahydrocortisol (TH-F), Tetrahydrocortisone (TH-E).

[3] = system: established 7-day old vasculature of the murine chronic granulomatous air pouch; test: Established 7-day old vasculature of the murine chronic granulomatous air pouch, s.c. dosing from day 7 to day 14 or 21; assay type: in vivo, mice; settings: for Vascular Index: Table 3
Description: as §1
Investigation of the action of tetrahydrocortisol, tetrahydrocortisone and tetrahydrocortexolone and the like on the established 7-day old vasculature of the murine chronic granulomatous air pouch was pursued. Groups of mice were dosed with tetrahydrocortisol, tetrahydrocortisone or tetrahydrocortexolone or the like (0.1-3.0 mg/kg in 0.1 ml saline/0.01% DMSO, s.c) daily from day 7 to termination at day 14 or day 21. Controls were dosed with 0.1 ml saline (0.01% DMSO alone).

[4] = system: murine chronic granulomatous air pouch; settings: s.c. at 1 mg/kg; reference (1); cited from earlier work
[5] = Table 1, 1 mg/kg s.c. daily day 0 to day 6
[6] = Table 2, 1.0 mg/kg s.c. daily day 0 to day 6

## C[C@]12CCC(=O)C=C1CC[C@@H]1[C@@H]2C(=O)C[C@@]2(C)[C@H]1CC[C@]2(O)C(=O)CO [Cortisone, cortisone]
[1]
  effect on angiogenesis: angiostatic
[2]; [5]
  Vascular Index: 8.23 ± 0.62 µg/mg
[2]
  angiostatic action: inactive

## C[C@]12CCC(O)C[C@H]1CC[C@@H]1[C@@H]2C(=O)C[C@@]2(C)[C@H]1CC[C@]2(O)C(=O)CO (some centres unmarked) [TH-E, 5-pregnane-3,17,21-triol-11,20-dione]
[3]; 0.1 mg/kg s.c. daily from day 7, termination Day 14
  Vascular Index: 18.18 ± 1.97 µg/mg
[3]; 0.1 mg/kg s.c. daily from day 7, termination Day 21
  Vascular Index: 18.59 ± 1.84 µg/mg
[3]; 0.3 mg/kg s.c. daily from day 7, termination Day 14
  Vascular Index: 20.38 ± 1.91 µg/mg
[3]; 0.3 mg/kg s.c. daily from day 7, termination Day 21
  Vascular Index: 31.33 ± 2.91 µg/mg
[3]; 1.0 mg/kg s.c. daily from day 7, termination Day 14
  Vascular Index: 22.49 ± 3.77 µg/mg
[3]; 1.0 mg/kg s.c. daily from day 7, termination Day 21
  Vascular Index: 25.75 ± 2.40 µg/mg
[3]; 3.0 mg/kg s.c. daily from day 7, termination Day 14
  Vascular Index: 18.87 ± 1.29 µg/mg
[3]; 3.0 mg/kg s.c. daily from day 7, termination Day 21
  Vascular Index: 25.91 ± 1.85 µg/mg
[3]; s.c., no heparin, therapeutic dosing (Table 3)
  angiostatic action: without effect
[1]; listed as tetrahydrocortisone
  effect on angiogenesis: significant acceleration of angiogenesis; also recorded: Definite angiogenesis action
[4]
  effect on angiogenesis: capable of inhibiting angiogenesis
[2]; [6]
  Vascular Index: 18.860 ± 1.830 µg/mg
[2]
  angiostatic action: without effect

## C[C@]12CCC(O)CC1CC[C@@H]1[C@@H]2C(O)C[C@@]2(C)[C@H]1CC[C@]2(O)C(=O)CO (some centres unmarked) [TH-F, 5-pregnane-3,11,17,21-tetrol-20-one]
[1]; listed as tetrahydrocortisol
  effect on angiogenesis: significant acceleration of angiogenesis; also recorded: Definite angiogenesis action
[1]; topical in 2.5% hyaluronan, 0.1-1.0 mg/kg (Table 5)
  dose relation of acceleration of angiogenesis: dose related
[4]
  effect on angiogenesis: capable of inhibiting angiogenesis
[2]; [5]
  Vascular Index: 5.29 ± 0.61 µg/mg
[2]; [6]
  Vascular Index: 13.088 ± 1.630 µg/mg
[2]
  angiostatic action: decrease in vascularity

## C[C@]12CC[C@@H](O)C[C@H]1CC[C@@H]1[C@@H]2CC[C@@]2(C)[C@H]1CC[C@]2(O)C(=O)CO [TH-S, tetrahydrocortexolone]
[4]
  effect on angiogenesis: capable of inhibiting angiogenesis

## heparin
[2]; Table 1, 1000 U p.o.
  Vascular Index: 7.93 ± 0.83 µg/mg

## hyaluronan [HA]
[1]; Table 4
  Vascular Index: 11.180 ± 1.980 µg/mg
[1]; Table 5
  Vascular Index: 11.180 ± 1.98 µg/mg
